Measured values reported in PubChem BioAssay (NCI).
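Assay format: 96-well plates, 48-hour exposure. At the GI50, growth is halved. At the TGI there is no net growth.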

Key:
Assay in all cases: growth of human tumour cells (NCI), 48 h
HCT-15 colon = test system: HCT-15 colon
UACC-257 melanoma = test system: UACC-257 melanoma
CCRF-CEM leukemia = test system: CCRF-CEM leukemia
SK-MEL-28 melanoma = test system: SK-MEL-28 melanoma
NCI/ADR-RES ovarian = test system: NCI/ADR-RES ovarian
HT29 colon = test system: HT29 colon
SK-MEL-5 melanoma = test system: SK-MEL-5 melanoma
MDA-MB-231 breast = test system: MDA-MB-231 breast
K-562 leukemia = test system: K-562 leukemia
TK-10 renal = test system: TK-10 renal
MDA-MB-435 = test system: MDA-MB-435
OVCAR-8 ovarian = test system: OVCAR-8 ovarian
SNB-75 CNS = test system: SNB-75 CNS
LOX IMVI melanoma = test system: LOX IMVI melanoma
A549 NSCLC = test system: A549 NSCLC
HOP-92 NSCLC = test system: HOP-92 NSCLC
SN12C renal = test system: SN12C renal
ACHN renal = test system: ACHN renal
KM12 colon = test system: KM12 colon
MALME-3M melanoma = test system: MALME-3M melanoma
HCC-2998 colon = test system: HCC-2998 colon
NCI-H226 lung = test system: NCI-H226 lung
RXF 393 renal = test system: RXF 393 renal
OVCAR-5 ovarian = test system: OVCAR-5 ovarian
IGROV1 ovarian = test system: IGROV1 ovarian
SF-268 CNS = test system: SF-268 CNS
HCT-116 colon = test system: HCT-116 colon
HOP-62 NSCLC = test system: HOP-62 NSCLC
COLO 205 colon = test system: COLO 205 colon
BT-549 breast = test system: BT-549 breast
MCF7 breast = test system: MCF7 breast
DU-145 prostate = test system: DU-145 prostate
786-0 renal = test system: 786-0 renal
A498 renal = test system: A498 renal
PC-3 prostate = test system: PC-3 prostate
NCI-H522 lung = test system: NCI-H522 lung
U251 CNS = test system: U251 CNS
SNB-19 CNS = test system: SNB-19 CNS
SK-MEL-2 melanoma = test system: SK-MEL-2 melanoma
UO-31 renal = test system: UO-31 renal
HS 578T breast = test system: HS 578T breast
SR leukemia = test system: SR leukemia
NCI-H460 lung = test system: NCI-H460 lung
HL-60(TB) leukemia = test system: HL-60(TB) leukemia
RPMI-8226 leukemia = test system: RPMI-8226 leukemia
NCI-H23 lung = test system: NCI-H23 lung
SK-OV-3 ovarian = test system: SK-OV-3 ovarian
EKVX NSCLC = test system: EKVX NSCLC
SW-620 colon = test system: SW-620 colon
OVCAR-4 ovarian = test system: OVCAR-4 ovarian
T-47D breast = test system: T-47D breast
SF-295 CNS = test system: SF-295 CNS
SF-539 CNS = test system: SF-539 CNS
OVCAR-3 ovarian = test system: OVCAR-3 ovarian
CAKI-1 renal = test system: CAKI-1 renal
UACC-62 melanoma = test system: UACC-62 melanoma

## COC1/C=C/OC2(C)Oc3c(C)c(O)c4c(O)c(c(/C=N/N(c5ccccc5)c5ccccc5)c(O)c4c3C2=O)NC(=O)C(C)=C/C=C/C(C)C(O)C(C)C(O)C(C)C(OC(C)=O)C1C (configuration not stated)
HCT-15 colon
  GI50: 1480 nM
  TGI: 5450 nM
UACC-257 melanoma
  GI50: 1480 nM
  TGI: 5440 nM
CCRF-CEM leukemia
  GI50: 1580 nM
  TGI: 6620 nM
SK-MEL-28 melanoma
  GI50: 1070 nM
  TGI: 2430 nM
NCI/ADR-RES ovarian
  GI50: 3760 nM
  TGI: 12600 nM
HT29 colon
  GI50: 1100 nM
  TGI: 2630 nM
SK-MEL-5 melanoma
  GI50: 1760 nM
  TGI: 6750 nM
MDA-MB-231 breast
  GI50: 1380 nM
  TGI: 4140 nM
K-562 leukemia
  GI50: 1590 nM
  TGI: 5690 nM
TK-10 renal
  GI50: 1800 nM
  TGI: 7550 nM
MDA-MB-435
  GI50: 1650 nM
  TGI: 5050 nM
OVCAR-8 ovarian
  GI50: 1800 nM
  TGI: 7970 nM
SNB-75 CNS
  GI50: 1660 nM
  TGI: 7180 nM
LOX IMVI melanoma
  GI50: 1040 nM
  TGI: 2410 nM
A549 NSCLC
  GI50: 2110 nM
  TGI: 7800 nM
HOP-92 NSCLC
  GI50: 867 nM
  TGI: 2860 nM
SN12C renal
  GI50: 1810 nM
  TGI: 7460 nM
ACHN renal
  GI50: 1750 nM
  TGI: 7130 nM
KM12 colon
  GI50: 1650 nM
  TGI: 6450 nM
MALME-3M melanoma
  GI50: 1830 nM
  TGI: 9360 nM
HCC-2998 colon
  GI50: 1710 nM
  TGI: 6160 nM
NCI-H226 lung
  GI50: 4230 nM
  TGI: 11800 nM
RXF 393 renal
  GI50: 963 nM
  TGI: 1930 nM
OVCAR-5 ovarian
  GI50: 2070 nM
  TGI: 10900 nM
IGROV1 ovarian
  GI50: 1850 nM
  TGI: 11500 nM
SF-268 CNS
  GI50: 1930 nM
  TGI: 8510 nM
HCT-116 colon
  GI50: 858 nM
  TGI: 1760 nM
HOP-62 NSCLC
  GI50: 3410 nM
  TGI: 10300 nM
COLO 205 colon
  GI50: 1730 nM
  TGI: 6230 nM
BT-549 breast
  GI50: 2500 nM
  TGI: 8830 nM
MCF7 breast
  GI50: 1620 nM
  TGI: 6580 nM
DU-145 prostate
  GI50: 2370 nM
  TGI: 7960 nM
786-0 renal
  GI50: 1630 nM
  TGI: 5960 nM
A498 renal
  GI50: 1630 nM
  TGI: 7420 nM
PC-3 prostate
  GI50: 1270 nM
  TGI: 4950 nM
NCI-H522 lung
  GI50: 983 nM
  TGI: 2190 nM
U251 CNS
  GI50: 1200 nM
  TGI: 3000 nM
SNB-19 CNS
  GI50: 2640 nM
  TGI: 12100 nM
SK-MEL-2 melanoma
  GI50: 1840 nM
  TGI: 7140 nM
UO-31 renal
  GI50: 3020 nM
  TGI: 12000 nM
HS 578T breast
  GI50: 1190 nM
  TGI: 4330 nM
SR leukemia
  GI50: 1400 nM
  TGI: 3390 nM
NCI-H460 lung
  GI50: 1520 nM
  TGI: 5320 nM
HL-60(TB) leukemia
  GI50: 1600 nM
  TGI: 3580 nM
RPMI-8226 leukemia
  GI50: 1160 nM
  TGI: 4420 nM
NCI-H23 lung
  GI50: 1960 nM
  TGI: 8980 nM
SK-OV-3 ovarian
  GI50: 6380 nM
  TGI: 12900 nM
EKVX NSCLC
  GI50: 2780 nM
  TGI: 11300 nM
SW-620 colon
  GI50: 1050 nM
  TGI: 2600 nM
OVCAR-4 ovarian
  GI50: 1950 nM
  TGI: 7600 nM
T-47D breast
  GI50: 1820 nM
  TGI: 7870 nM
SF-295 CNS
  GI50: 2180 nM
  TGI: 8820 nM
SF-539 CNS
  GI50: 1440 nM
  TGI: 4700 nM
OVCAR-3 ovarian
  GI50: 852 nM
  TGI: 1700 nM
CAKI-1 renal
  GI50: 2420 nM
  TGI: 11200 nM
UACC-62 melanoma
  GI50: 992 nM
  TGI: 2580 nM
